Laboratory results: patent US8334316B2, “Substituted organosulfur compounds and methods of using thereof” (ACEA Biosciences, Inc., priority 2004, dated 2012)
Like-named read-outs stand apart in the source and are kept apart here.

Test: Acute toxicity, single intravenous injection, LD50 (Bliss method) in Kunming mice
Format: in vivo
Conditions: for Dead animals on each day after the single intravenous injection (c3-c11 = day 1-9, c12 = day 10-14): 163.8 mg/kg; for LD50 at 2 weeks: Kunming, mouse, in vivo, iv
Description: To evaluate the in vivo acute, intravenous toxicity of DBTS and ACEA100108 (a derivative of DBTS, see Table 33), the experiments were performed in non-tumor bearing, normal Kunming mice by monitoring the acute response of mice to a single dose of DBTS or ACEA100108 via intravenous injection (i.v.). The number of death for the treated mice was monitored and recorded. LD50 values for these compounds were calculated. Details of the study are provided below.
The experiments to test DBTS and ACEA100108 acute toxicity were performed in mice. The test mice were randomly divided into six groups (five dosing groups and one control group). Each group contained 20 Kunming strain mice, and among them, 50% were male and 50% were female. After administration of a single dose of DBTS or ACEA100108 via intravenous injection (i.v.), the acute response to DBTS or ACEA100108 compound, and the death of the treated mice during the first two weeks were monitored and recorded. The LD50 value was calculated using the Bliss method.
Materials and Method. The test chemical compound were DBTS and ACEA100108, which were dissolved into hydrogenated castor oil in the pre-warmed water bath and made as a 20 mg/ml solution. The solution was further diluted to desired experiment concentrations with the normal saline. The administration volume was 0.5 ml i.v. per mouse and the injection speed was 0.5 ml/0.5 min.
The experimental mice were Kunming strain, provided by the Experimental Animal Department, Shanghai Pharmaceutical Industry Institute. The certificate number of the facility was Animal Facility Certification Number 107. The average weight of the mice was 18-20 gram. Each test group contained 20 Kunming strain mice, and among them, 10 mice were male and 10 mice were female. […] The mice in the control group were only given the same volume of the solvent, which were diluted hydrogenated castor oil. All the testing mice were given a single intravenous injection of DBTS, ACEA100108, or the solvent that served as the control at the injection speed of 0.5 ml/0.5 min. The acute response to DBTS, ACEA100108 or the solvent immediately after the administration, as well as weight change, and the death within the first two weeks of the administration were monitored and recorded. The intravenous injection LD50 values in mice were calculated using the Bliss method.

[1] = female, 163.8 mg/kg single i.v.
[2] = female, 204.8 mg/kg single i.v.

c1ccc(CSSSCc2ccccc2)cc1 [DBTS, Dibenzyl trisulfide]
Percentage of dead animals % (50% male, 50% female, 163.8 mg/kg single i.v.): 0%
Dead animals on each day after the single intravenous injection (c3-c11 = day 1-9, c12 = day 10-14) (50% male, 50% female, 20 animals, deaths on day 8 after injection): 0
Dead animals on each day after the single intravenous injection (c3-c11 = day 1-9, c12 = day 10-14) (50% male, 50% female, 20 animals, deaths on days 10-14 after injection): 0 - - - 0
Percentage of dead animals % (50% male, 50% female, 204.8 mg/kg single i.v.): 15%
Percentage of dead animals % (50% male, 50% female, 256 mg/kg single i.v.): 45%
Percentage of dead animals % (50% male, 50% female, 320 mg/kg single i.v.): 85%
Percentage of dead animals % (50% male, 50% female, 400 mg/kg single i.v.): 100%
mouse single i.v. dose LD50, interval in parentheses (Kunming mice, 50% male 50% female, Bliss method): 234.96 to 284.56 mg/kg
LD50 at 2 weeks (both sexes, 50% male, 50% female Kunming mice, single i.v., read-out: LD50): 259 mg/kg
LD50 at 2 weeks (both sexes, 50% male, 50% female Kunming mice, single i.v., read-out: LD50 (95% CL)): 235 to 284 mg/kg
LD50 at 2 weeks (both sexes, Kunming mice, 50% male 50% female, Bliss method, read-out: mouse single i.v. dose LD50, interval in parentheses): 235 to 284 mg/kg
LD50 at 2 weeks (both sexes, Kunming mice, 50% male 50% female, Bliss method, read-out: mouse single i.v. dose LD50 value): 259 mg/kg
Average animal weight (g) Beginning [1]: 19.9 g
Average animal weight (g) End [1]: 24.5 g
Percentage of dead animals % [1]: 0%
Dead animals on each day after the single intravenous injection (c3-c11 = day 1-9, c12 = day 10-14) (female, 10 animals, deaths on day 8 after injection): 0
Dead animals on each day after the single intravenous injection (c3-c11 = day 1-9, c12 = day 10-14) (female, 10 animals, deaths on days 10-14 after injection): 0 - - - 0
Average animal weight (g) Beginning [2]: 20.5 g
Percentage of dead animals % [2]: 20%
Average animal weight (g) End (female, 204.8 mg/kg single i.v., survivors): 24.3 g
Average animal weight (g) Beginning (female, 256 mg/kg single i.v.): 19.9 g
Percentage of dead animals % (female, 256 mg/kg single i.v.): 50%
Average animal weight (g) End (female, 256 mg/kg single i.v., survivors): 24.2 g
Average animal weight (g) Beginning (female, 320 mg/kg single i.v.): 20.6 g
Percentage of dead animals % (female, 320 mg/kg single i.v.): 80%
Average animal weight (g) End (female, 320 mg/kg single i.v., survivors): 24.5 g
Average animal weight (g) Beginning (female, 400 mg/kg single i.v.): 19.8 g
Percentage of dead animals % (female, 400 mg/kg single i.v.): 100%
LD50 at 2 weeks (female, female Kunming mice, single i.v., read-out: LD50): 256 mg/kg
LD50 at 2 weeks (female, female Kunming mice, single i.v., read-out: LD50 (95% CL)): 222 to 296 mg/kg
Average animal weight (g) Beginning (male, 163.8 mg/kg single i.v.): 20.0 g
Average animal weight (g) End (male, 163.8 mg/kg single i.v.): 26.9 g
Percentage of dead animals % (male, 163.8 mg/kg single i.v.): 0%
Dead animals on each day after the single intravenous injection (c3-c11 = day 1-9, c12 = day 10-14) (male, 10 animals, deaths on day 8 after injection): 0
Dead animals on each day after the single intravenous injection (c3-c11 = day 1-9, c12 = day 10-14) (male, 10 animals, deaths on days 10-14 after injection): 0 - - - 0
Average animal weight (g) Beginning (male, 204.8 mg/kg single i.v.): 19.9 g
Percentage of dead animals % (male, 204.8 mg/kg single i.v.): 10%
Average animal weight (g) End (male, 204.8 mg/kg single i.v., survivors): 26.6 g
Average animal weight (g) Beginning (male, 256 mg/kg single i.v.): 20.4 g
Percentage of dead animals % (male, 256 mg/kg single i.v.): 40%
Average animal weight (g) End (male, 256 mg/kg single i.v., survivors): 26.3 g
Average animal weight (g) Beginning (male, 320 mg/kg single i.v.): 20.1 g
Percentage of dead animals % (male, 320 mg/kg single i.v.): 90%
Average animal weight (g) End (male, 320 mg/kg single i.v., survivors): 25.0 g
Average animal weight (g) Beginning (male, 400 mg/kg single i.v.): 20.1 g
Percentage of dead animals % (male, 400 mg/kg single i.v.): 100%
LD50 at 2 weeks (male, male Kunming mice, single i.v., read-out: LD50): 261 mg/kg
LD50 at 2 weeks (male, male Kunming mice, single i.v., read-out: LD50 (95% CL)): 230 to 296 mg/kg
